Data as given in patent US6727059B1, “METHOD FOR CONTROLLING THE FIDELITY AND PROCESSIVITY OF REVERSE TRANSCRIPTASE BY INCORPORATION AND POLYMERIZATION OF NUCLEOTIDE ANALOGS ACCEPTED AS SUBSTRATES FOR THE REVERSE TRANSCRIPTION REACTION WITHOUT BLOCKING ITS ELONGATION” (priority 2002, dated 2004).

Assays:
Type in all cases: biochemical
[1] = biological target: T1, HIV-1 reverse transcriptase (Human immunodeficiency virus type 1 group M subtype B, UniProt P04585); assay: Identification of termination sites of polymerization with base analogs, HIV-1 reverse transcriptase; conditions: pbs primer; for number of new termination sites appearing / termination rate with the analog compared to the normal dNTP, overall: analog replaces its normal dNTP; for termination rate with the analog compared to the normal dNTP, overall: each dNTP 500 μM, 30 min 37° C.
From the text: The termination sites and the termination rates at each site were studied in the presence of 4 natural dNTPs present in excess, or in the presence of three of these natural dNTPs, the fourth being replaced with an analog: dUTP as a replacement for dTTP, dITP and c7dGTP as a replacement for dGTP and, finally, c7dATP in place of dATP (FIGS. 1.2 and 1.3). These analogs affect the formation of the hydrogen bonds in the two grooves of the double helix.
(§1) The termination sites were identified during polymerization catalyzed by the HIV-1 reverse transcriptase and the Klenow fragment by changing one of the dNTPs for its base analog. dTTP was replaced with dUTP, dGTP was replaced with dITP or c7dGTP and dATP was replaced with c7dATP. In this study, the synthesis is primed with pbs.
(§2) The reaction begins by formation of the reaction complex between the matrix/primer labeled at the 5′ end (0.05 pmol) with the enzyme (0.01 U/μl) by incubation at 37° C. for 3 min for the 3 RTs and at 25° C. for the Klenow fragment. A solution containing the 3 dNTPs and one of the analogs, each at the final concentration of 500 μM, and trapping DNA (100:1:trapping DNA:matrix/cold primer) is then added. The use of trapping DNA makes it possible to prevent the reinitialization of the polymerization at the termination sites. In parallel, a control in the presence of the 4 “normal” dNTPs was carried out under reaction conditions identical to the reaction in the presence of analogs. The mixture is incubated for 30 min at 37° C. for the HIV-1 reverse transcriptase and at 25° C. for the Klenow fragment. The reaction is stopped by adding ⅓ volume of stop solution (v/v), and then the reaction products are loaded onto a denaturing 8 M urea 13% acrylamide gel. Position of the termination sites is identified by the co-migration of the sequencing products (Sanger method).
(§3) Each reaction was carried out 3 times; variations in the strength of the termination rates are observed, but they are small and less than 10%. For the HIV-1 reverse transcriptase and the Klenow fragment, the synthesis termination rates with the various analogs (black rods) as a function of the sequence are given in the presence of the termination rates obtained in the control reaction, i.e. in the presence of the “normal” bases (white rods).

[2] = biological target: T2, Klenow fragment of E.coli DNA-dependent DNA polymerase (Escherichia coli, UniProt P00582); assay: Identification of termination sites of polymerization with base analogs, Klenow fragment; conditions: pbs primer; for termination rate with the analog compared to the normal dNTP: analog replaces its normal dNTP, each dNTP 500 μM, 30 min 25° C., positions +20 to +55
T2 construct: the Klenow fragment of E.coli DNA-dependent DNA polymerase (KF)
T2 sequence (P00582 324-928): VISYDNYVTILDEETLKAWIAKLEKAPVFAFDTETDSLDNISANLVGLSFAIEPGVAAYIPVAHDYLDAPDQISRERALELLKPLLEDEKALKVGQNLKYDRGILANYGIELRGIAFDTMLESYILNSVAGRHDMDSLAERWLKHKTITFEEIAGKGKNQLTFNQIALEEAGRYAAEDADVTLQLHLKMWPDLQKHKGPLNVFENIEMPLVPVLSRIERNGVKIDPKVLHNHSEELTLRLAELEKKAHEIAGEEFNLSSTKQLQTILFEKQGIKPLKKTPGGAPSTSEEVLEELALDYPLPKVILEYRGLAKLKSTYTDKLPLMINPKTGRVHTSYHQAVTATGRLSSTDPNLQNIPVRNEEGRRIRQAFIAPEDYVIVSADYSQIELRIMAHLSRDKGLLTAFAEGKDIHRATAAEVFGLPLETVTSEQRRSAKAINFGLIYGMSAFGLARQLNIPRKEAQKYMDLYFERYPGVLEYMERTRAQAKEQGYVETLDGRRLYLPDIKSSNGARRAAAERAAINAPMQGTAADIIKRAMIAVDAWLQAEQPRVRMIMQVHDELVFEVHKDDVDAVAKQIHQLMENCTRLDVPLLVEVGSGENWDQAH
From the text: These matrices were used for parallel studies of HIV-1 reverse transcriptase and of the Klenow fragment of E.coli DNA-dependent DNA polymerase (KF). There have been many studies relating to the fidelity and processivity of the Klenow fragment (Abbotts and Wilson, 1988; Lecomte and Ninio, 1987, 1988; Papanicolaou and Ripley, 1989 and 1991).
as §1, §2, §3
Overall, the presence of the base analogs reduces the efficiency of the Klenow fragment polymerization, making it difficult to detect termination sites beyond the position +55, and for this reason, we have represented, in the various figures which follow, only the termination sites located between position +20 and +55.

[3] = biological target: T1, HIV-1 reverse transcriptase; assay: Kinetics of misincorporation (error rate) in the minus A reaction with base analogs; conditions: absence of dATP; for error rate at the first misincorporation site opposite T-135, start of the kinetics: starting value
From the text: In order to understand the role of the three dNTPs present involved in the misincorporation subsequent to the absence of the fourth dNTP, dGTP and/or dCTP were replaced with dITP and dUTP, respectively, in the reaction minus A. dITP was chosen because I can pair with T and therefore compensate for the absence of A, and dUTP was chosen in order to assess the affect that the absence of the methyl of a T may have on the fidelity of incorporation of the neighboring pair. For this reason, we are interested not only in the sites and rates of misincorporations, but in the kinetics with which these misincorporations take place. The conditions most suited to the lack of fidelity of the HIV-RT were selected: use of the matrix+env (ppt primer) and absence of dATP (data not shown).
After hybridization of the ppt primer labeled at the 5′ end (1 pmol), with the matrix+env (2 pmol), the HIV-1 reverse transcriptase is added at the final concentration of 0.1 U/μl. Solutions containing dCTP, dGTP, dTTP (control), dCTP, dITP, dTTP or dCTP, dGTP, dUTP or dCTP, dITP, dUTP, each at the final concentration of 500 μM, were added to equivalent (¼ of the mixture) fractions. […] After denaturation at 92° C. for 5 min, the reaction products are loaded onto an 8M urea denaturing 13% acrylamide gel.
FIG. 4.4 represents the variation in the misincorporation rate in front of T-135 (matrix), the first misincorporation site, as a function of time and of the base analog used.

[4] = biological target: T1, HIV-1 reverse transcriptase; assay: Analysis of mismatches: restriction test and sequencing of mutated plasmids from the minus A reaction; conditions: for fidelity of the HIV-1 reverse transcriptase / profile of mutations: analog instead of normal dNTP
Protocol: Matrix/labeled primer (0.5 pmol), reverse transcriptase (0.04 U/μl) and the 3 dNTPs (500 μM final) were incubated for 30 min at 37° C., and then the dATP (500 μM final) was added and the incubation continued for 30 min at 37° C. The reaction is then stopped by adding EDTA at the concentration of 10 mM final. The reaction products are recovered after alcohol precipitation and digested with the Sac I enzyme. After denaturation at 90° C. for 3 min, the product is loaded onto a denaturing 10% acrylamide gel. After migration and auto-radiography, the 200-base bands are recovered on the gel and then purified. These fragments are amplified by PCR (15 cycles), cleaved with Mlu I and Bam H I and inserted into pBluescript SK+ppt by ligation with T4 DNA ligase, followed by transformation with XL-1 Blue.
The mutated plasmids are easily selected since they no longer have the restriction site recognized by the Nco I enzyme (see FIG. 4.5). In addition, the absence of enzymatic digestion with Sph I implies a double mutation.
The polymerization reaction was carried out in the absence of dATP, as for the reaction in the presence of the “natural” bases, but the dGTP was replaced with dITP or the dTTP was replaced by dUTP. After 30 min at 37° C. in the presence of the HIV-1 reverse transcriptase and of 3 of the 4 bases, the matrix/labeled primer is purified on a Sephadex G50 column, so as to eliminate the nucleotides which have not been incorporated, and in particular the dITP and dUTP which would modify the Sac I restriction site. The elongation is then continued for 30 min at 37° C. in the presence of the 4 natural dNTPs, at the final concentration of 500 μM, and of the enzyme (0.05 U/μl). After alcohol precipitation, digestion with the Sac I restriction enzyme and recovery of the 200-base band, a PCR is carried out under the same conditions as for the reaction in the presence of the “natural” bases. […]

[5] = matrix +env, ppt primer, dNTPs 500 μM each
[6] = 7 plasmids sequenced, minus A, dITP instead of dGTP
[7] = of 36 plasmids isolated, minus A, Nco I and Sph I digestion test
[8] = sequenced plasmids, absence of dATP and dGTP

Nc1ncnc2c1ccn2[C@H]1C[C@H](O)[C@@H](COP(=O)(O)OP(=O)(O)OP(=O)(O)O)O1 [c7dATP]
number of new termination sites appearing ([1]; 500 μM): 3 sites
termination rate with the analog compared to the normal dNTP, overall [1]: little effect overall
decrease of the termination rate on A75 ([1]; c7dATP instead of dATP, 500 μM): ~2 fold
increase of termination strength opposite A41 ([1]; c7dATP instead of dATP, 500 μM): 7 ×
increase of termination strength opposite T76 ([1]; c7dATP instead of dATP, 500 μM): 2 ×
increase of the termination rate at A41 ([1]; c7dATP instead of dATP, 500 μM): ~7 fold
part of the elongation complexes stopped at new site T63 ([1]; c7dATP instead of dATP, 500 μM): half
termination rate on A35 ([1]; c7dATP instead of dATP, 500 μM): remains stable
termination rate with the analog compared to the normal dNTP [2]: increase in the termination rates in 3 waves

Nc1nc2c(ccn2C2CC(O)C(COP(=O)(O)OP(=O)(O)OP(=O)(O)O)O2)c(=O)[nH]1 (centres unmarked) [c7dGTP]
number of new termination sites appearing ([1]; 500 μM): 4 sites
termination rate with the analog compared to the normal dNTP, overall [1]: considerable increase at the start of elongation, and then a clear tendency toward decreasing the termination rate
decrease of the termination rate at other sites ([1]; c7dGTP instead of dGTP, 500 μM): up to 10 fold
decrease of the termination rate opposite C21 ([1]; c7dGTP instead of dGTP, 500 μM): 10%
decrease of the termination rate opposite C49 ([1]; c7dGTP instead of dGTP, 500 μM): 90%
increase of the termination rate at 6 of the 18 termination sites ([1]; c7dGTP instead of dGTP, 500 μM): up to 3.5 fold
termination rate with the analog compared to the normal dNTP [2]: All the stops on the sites at which the c7dGMP is incorporated into the polymerized strand are increased
decrease of the termination rate at C32 ([2]; c7dGTP instead of dGTP, 500 μM): 26%

O=c1[nH]cnc2c1ncn2[C@H]1C[C@H](O)[C@@H](COP(=O)(O)OP(=O)(O)OP(=O)(O)O)O1 [dITP]
number of new termination sites appearing ([1]; 500 μM): Two
termination rate with the analog compared to the normal dNTP, overall [1]: higher
factor of increase in the termination rates of 10 sites ([1]; dITP instead of dGTP, 500 μM): ~4
termination strength at the exit of the series of 6As, on average ([1]; dITP instead of dGTP, 500 μM): doubled
termination rate with the analog compared to the normal dNTP [2]: increases in the termination rates of the sites located before the incorporation of a dITP
decrease of the error rate observed with dGTP at the first misinsertion site ([3]; dITP instead of dGTP, after 45 min of incubation): ~50%
error rate at the first misincorporation site opposite T-135 after 10 min [3, 5]: 40%
error rate at the first misincorporation site opposite T-135, start of the kinetics [3, 5]: 0%
deletion or insertion in the plasmids sequenced ([4]; 7 plasmids sequenced, minus A): No deletion or insertion is detected
times C is incorporated at the 1st site of misincorporation (T-135 matrix) [4, 6]: 4 times
times the I base is incorporated at the 1st site of misincorporation (T-135 matrix) [4, 6]: 3 times
order of substitution at the T sites of the matrix ([4]; absence of dATP): C>>I>>T
fidelity of the HIV-1 reverse transcriptase / profile of mutations ([4]; absence of dATP): increased
mutation rate ([4]; in vitro, absence of dATP, dITP instead of dGTP): decreases the mutation rate
plasmids mutated at least on the first site at which A is requested [4, 7]: 4 plasmids
plasmids mutated on at least the first three sites [4, 7]: 3 plasmids
plasmids mutated on the first two sites [4, 7]: one
number of T:I pairings [4, 8]: three
number of T:T pairings [4, 8]: one
number of T:C mismatches, all mismatches whatever their position ([4]; sequenced plasmids, minus A): eight

O=c1ccn([C@H]2C[C@H](O)[C@@H](COP(=O)(O)OP(=O)(O)OP(=O)(O)O)O2)c(=O)[nH]1 [dUTP]
termination rate with the analog compared to the normal dNTP, overall [1]: lower than with dTTP
decrease of the termination rate of most of the sites located before and after the incorporation of the analog (maximum) ([1]; dUTP instead of dTTP, 500 μM): ≤ 5%
number of sites with a decrease of more than half of their termination rate ([1]; dUTP instead of dTTP, 500 μM): Seven
termination rate with the analog compared to the normal dNTP [2]: significantly increases the termination rate of most of the sites which precede the incorporation of the dUMP
error rate at the first misincorporation site opposite T-135 after 10 min [3, 5]: 65%
error rate at the first misincorporation site opposite T-135 after 45 min ([3]; matrix +env, ppt primer, dNTPs 500 μM each, 45 min): ~77%
error rate at the first misincorporation site opposite T-135, start of the kinetics [3, 5]: 5%
T:U mismatch ([4]; 6 plasmids sequenced, minus A, dUTP instead of dTTP): No base U is incorporated
fidelity of the HIV-1 reverse transcriptase / profile of mutations ([4]; absence of dATP): only slightly modifies the profile and the specificity of the mutations
plasmids without any mutations on the Sph I and Nco I sites ([4]; of 36 plasmids, minus A): 15 plasmids
plasmids with at least two mutations ([4]; of 36 plasmids, minus A, Sph I and Nco I digestion): 21 plasmids
number of T:C mismatches, all mismatches whatever their position ([4]; sequenced plasmids, minus A): 6
number of T:G mismatches, all mismatches whatever their position ([4]; sequenced plasmids, minus A): 17
